The values that follow come from a melting point compilation (Tetko et al.).

The melting point is the temperature of the solid-liquid transition.

As for `O=S(=O)(CCN1CCCC(O)C1)c1ccc(Br)cc1` (configuration not stated), the melting point lay in the range of 182 to 184 °C. The result for `CCNS(=O)(=O)c1ccc(Br)c(C)c1` reads 91 to 93 °C; that for `Brc1csc(Br)n1`, 80 to 84 °C.

In the case of `CCS(=O)(=O)NCCc1ccc(S(N)(=O)=O)s1`, the melting point lay in the range of 121 to 123 °C.

For the compound `Brc1ccc2ncnc(N3CCNCC3)c2c1`, the melting point lay in the range of 99 to 101 °C. The figure for `CN1CCN(c2ccc(C=O)cc2F)CC1` is 65 to 67 °C. The result for `CC(C)c1ccc(C(=O)CCl)cc1` reads 44 to 46 °C; that for `Cc1ccc(-c2nnc(S)o2)cc1`, 266 to 268 °C. The figure for `Cc1cccc2ncc(C=O)n12` is 128 to 130 °C.

Take `CS(=O)(=O)c1nnc(N)[nH]1`: the melting point fell in the range of 243 to 245 °C. The result for `CC(=O)Nc1c[nH]c(C)c1C(=O)O` reads 183 to 185 °C; that for `CC(C)C(=O)Nc1cccc(N)c1`, 119 to 121 °C. The figure for `O=C(O)CNS(=O)(=O)c1cccc(C(F)(F)F)c1` is 80 to 82 °C. The result for `O=C(Nc1cccc(Br)c1)c1cccc(S(=O)(=O)N2CCCCCC2)c1` reads 149 to 151 °C; that for `NCc1ccc(OCC(N)=O)cc1`, 106 to 108 °C.

Turning to `CC(Cl)C(=O)N(CCC#N)c1ccccc1` (configuration not stated), the melting point is 74 to 76 °C. The figure for `CC1C(=O)NC(=O)N1c1ccccc1` (configuration not stated) is 147 to 149 °C; for `CN1C(=O)C(=O)c2ccc(F)cc21` it is 137 to 139 °C; for `O=C(O)C1CCCN1C(=O)c1cccs1` (configuration not stated) it is 145 to 147 °C.

In turn, `COc1ccc(C(=O)N2CCC(C(=O)O)CC2)c2ccccc12` displayed a melting point of 254 to 257 °C. The result for `CCCCn1c2c(c(=O)n(C)c1=O)C(CC(=O)O)C(=O)N2` (configuration not stated) reads 229 to 231 °C. The figure for `O=C(O)CCc1ccccc1[N+](=O)[O-]` is 109 to 111 °C; for `COC(=O)c1ncsc1S(N)(=O)=O` it is 155 to 157 °C. The result for `NC(=O)NCCc1cccnc1` reads 152 to 154 °C. Consider `CC(=O)Oc1cc(C)ccc1C(=O)O`, for which the melting point is 139 to 141 °C. The figure for `Clc1ccc(NCc2ccccc2)cc1` is 47 to 49 °C; for `Cc1nn(-c2ccccc2)c(C)c1SCC(=O)O` it is 148 to 150 °C; for `COc1cc(C#N)c2ccccc2n1` it is 133 to 135 °C. The figure for `Nc1nc(-c2ccco2)cs1` is 109 to 111 °C. The result for `Nc1ccc(N2CCNC(=O)C2)nc1` reads 136 to 138 °C; that for `Fc1cc(Br)cc2cc(Br)cnc12`, 161 to 163 °C. As for `CC(C(=O)O)c1ccc(S(=O)(=O)N(C)C)cc1` (configuration not stated), the melting point lay within 122 to 124 °C. The figure for `Nc1ncn(Cc2ccc(Cl)cc2)n1` is 156 to 158 °C; for `N#Cc1ccc(NCC(=O)O)cc1` it is 225 to 227 °C.

`ClCc1ccc(Oc2cccc(Cl)c2Cl)cc1` displayed a melting point of 62 to 64 °C.

The compound `Cc1c(I)cccc1C(=O)O` showed a melting point of 113 to 115 °C. `O=C(O)C1CCCN1C(=O)c1ccc2[nH]nnc2c1` (configuration not stated) came in with a melting point of 223 to 225 °C.

Compound `N#Cc1cncs1` yielded a melting point of 51 to 53 °C. The result for `CCc1ccccc1-n1c(S)nc2ccccc2c1=O` reads 304 to 306 °C. The result for `CSc1nc(-c2ccccc2)c[nH]1` reads 130 to 132 °C; that for `Nc1ccc(-c2nc(C3CC3)n[nH]2)cc1`, 192 to 194 °C. The result for `CCNC(=O)Nc1cccc(F)c1C(=O)O` reads 159 to 161 °C. `O=C(O)c1cnco1` had a melting point of 226 to 230 °C. The result for `CCc1cccc(NC(N)=S)c1` reads 85 to 87 °C. The figure for `O=C(O)C(=O)Cc1ccc(Cl)c(Cl)c1` is 169 to 171 °C. The result for `CCCc1cnc(N)s1` reads 43 to 45 °C; that for `CC(O)C1CCNCC1` (configuration not stated), 68 to 70 °C.

`O=C(O)c1ccc(NS(=O)(=O)c2ccc(Cl)c([N+](=O)[O-])c2)cc1O`: the melting point was 242 to 244 °C.

`Nc1ccnn1Cc1ccc(Cl)c(F)c1` came in with a melting point of 68 to 70 °C. The result for `O=C1CCCc2nc(-c3ccccc3)sc21` reads 119 to 121 °C; that for `O=C(O)C(NS(=O)(=O)c1cccc(Cl)c1)c1ccccc1` (configuration not stated), 168 to 170 °C. The result for `NCc1ccccc1-c1ccc(CN2CCCC2=O)cc1` reads 82 to 84 °C; that for `Nc1sc2c(c1-c1nc3ccccc3s1)CCC2`, 135 to 137 °C; that for `Cc1cc(C(=O)CCl)c(C)n1C(C)C`, 45 to 47 °C.

Compound `Cn1ncc2cn[nH]c2c1=O` displayed a melting point of 246 to 248 °C. The result for `CCCCOc1c(Cl)cc(C(=O)O)cc1OCC` reads 89 to 91 °C. `O=C(O)CCC(=O)N1CCOc2ccccc21` had a melting point of 109 to 111 °C. The result for `CCCS(=O)(=O)Nc1ccccc1C(=O)O` reads 150 to 152 °C; that for `CCCCCS(=O)(=O)CC(=O)O`, 69 to 71 °C.

On to `O=C(O)Cc1csc(-c2cc(Br)cs2)n1`, for which the melting point fell in the range of 129 to 131 °C. In the case of `Nc1c(Cl)cc(S(=O)(=O)Cl)cc1Cl`, the melting point was 134 to 136 °C. The result for `Cc1nn(C)c(N)c1SC#N` reads 176 to 178 °C; that for `COc1ccc(Br)cc1CBr`, 51 to 58 °C; that for `CCCCc1ccc(N2CC(C(=O)O)CC2=O)cc1` (configuration not stated), 139 to 141 °C. The figure for `CC(NC(=O)CCl)c1ccco1` (configuration not stated) is 63 to 65 °C; for `Nc1ccc(S(=O)(=O)Nc2ccccc2Cl)cc1N` it is 203 to 205 °C. The figure for `NC(=O)Cc1ccc(F)cc1` is 155 to 157 °C; for `COc1ccc(C(=O)Nc2ncc(C)s2)cc1N` it is 225 to 227 °C. `CC1=NC2(CCCC2)C(=O)N1` gave a melting point of 66 to 68 °C. The figure for `CCCS(=O)(=O)Nc1ccc(C(=O)O)cc1` is 187 to 189 °C. The result for `CC(=O)c1sc(-c2ccc(O)cc2)nc1C` reads 133 to 135 °C.

Take `BrC1=CC2C(C3C=CC2(Br)C32OCCO2)C12OCCO2` (configuration not stated): the melting point is 178 to 180 °C. The result for `N#CCc1ncc(C(F)(F)F)cc1Cl` reads 34 to 36 °C; that for `O=C(O)c1cc2c(s1)-c1cc(F)ccc1SC2`, 279 to 281 °C. The figure for `O=[N+]([O-])c1cccc(Cl)c1S(=O)(=O)Cl` is 81 to 83 °C; for `Cc1ccc(-n2nc(C(=O)O)c3c2CCC3)c(F)c1` it is 219 to 221 °C. The figure for `O=C(O)C1CCN(C(=O)N2CCCC2)CC1` is 144 to 146 °C; for `Cc1ccccc1C(=O)C=O` it is 63 to 65 °C; for `Cc1ccc(C(C)(C)C)cc1S(N)(=O)=O` it is 138 to 140 °C. On to `O=C(c1cccnc1)c1csc2ccccc12`, for which the melting point lay in the range of 109 to 111 °C. The figure for `c1ccc2oc(-c3nn[nH]n3)cc2c1` is 212 to 214 °C. The result for `COc1ccccc1-c1cc(N)n(-c2ccccc2)n1` reads 119 to 121 °C. The figure for `O=[N+]([O-])c1cc(S(=O)(=O)N2CCCC2)ccc1Cl` is 96 to 100 °C; for `Nc1nc(-c2ccccc2OC(F)F)cs1` it is 73 to 75 °C. As to `N#Cc1ccc(N2CCNCC2)c(F)c1`, the melting point lay within 84 to 86 °C. On to `CC(C)C(=O)N(C)CC(=O)O`, for which the melting point was 109 to 111 °C. The result for `O=C(O)c1cccc(-c2ncon2)c1` reads 175 to 177 °C.
